Data: PubChem BioAssay AID2060625 (Molecular Pharmacology Branch, DTP, NCI, 2025)
Several values for one entry are separate records, joined by “and”; a condition that tells them apart may be missing. Identical values can stand only once.

System: 186277-243-T-J2-PDC spheroids with HUVEC/MSC, viability
Test: Anticancer human tumor 186277-243-T-J2-PDC patient-derived colon adenocarcinoma cell line growth inhibition [CLK]
Details: for viability, T/C: stronger effect = lower value
Summary of the method: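 Patient-derived tumor cells grown as complex spheroids with HUVEC endothelial cells and mesenchymal stem cells, treated with drug combinations. Concentrations descend in half-log steps from near clinical Cmax, or from 10 microM if Cmax unknown.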

[1] = curve of first compound, second compound 0.0316 µM
[2] = curve of first compound, second compound 0.1 µM
[3] = curve of first compound, second compound 0.316 µM
[4] = curve of first compound, second compound 1 µM
[5] = curve of first compound, second compound 3.16 µM
[6] = curve of first compound, second compound 10 µM
[7] = second compound 0.0316 µM, first compound 0.0316 µM
[8] = second compound 0.0316 µM, first compound 0.1 µM
[9] = second compound 0.0316 µM, first compound 0.316 µM
[10] = second compound 0.0316 µM, first compound 1 µM
[11] = second compound 0.0316 µM, first compound 3.16 µM
[12] = second compound 0.0316 µM, first compound 10 µM
[13] = second compound 0.1 µM, first compound 0.0316 µM
[14] = second compound 0.1 µM, first compound 0.1 µM
[15] = second compound 0.1 µM, first compound 0.316 µM
[16] = second compound 0.1 µM, first compound 1 µM
[17] = second compound 0.1 µM, first compound 3.16 µM
[18] = second compound 0.1 µM, first compound 10 µM
[19] = second compound 0.316 µM, first compound 0.0316 µM
[20] = second compound 0.316 µM, first compound 0.1 µM
[21] = second compound 0.316 µM, first compound 0.316 µM
[22] = second compound 0.316 µM, first compound 1 µM
[23] = second compound 0.316 µM, first compound 3.16 µM
[24] = second compound 0.316 µM, first compound 10 µM
[25] = second compound 1 µM, first compound 0.0316 µM
[26] = second compound 1 µM, first compound 0.1 µM
[27] = second compound 1 µM, first compound 0.316 µM
[28] = second compound 1 µM, first compound 1 µM
[29] = second compound 1 µM, first compound 3.16 µM
[30] = second compound 1 µM, first compound 10 µM
[31] = second compound 3.16 µM, first compound 0.0316 µM
[32] = second compound 3.16 µM, first compound 0.1 µM
[33] = second compound 3.16 µM, first compound 0.316 µM
[34] = second compound 3.16 µM, first compound 1 µM
[35] = second compound 3.16 µM, first compound 3.16 µM
[36] = second compound 3.16 µM, first compound 10 µM
[37] = second compound 10 µM, first compound 0.0316 µM
[38] = second compound 10 µM, first compound 0.1 µM
[39] = second compound 10 µM, first compound 0.316 µM
[40] = second compound 10 µM, first compound 1 µM
[41] = second compound 10 µM, first compound 3.16 µM
[42] = second compound 10 µM, first compound 10 µM
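Further: compound exposure lasted seven days before readout.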
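Wherever viability, T/C is given: 100% = DMSO vehicle control wells.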

## Nc1ccn(C2OC(CO)C(O)C2(F)F)c(=O)n1 (stereo not given) + CNC(=O)c1ccc(Nc2nc(OC3CCCC3)c3c(-c4ccc5nc(C)oc5c4)c[nH]c3n2)c(OC)c1
[1]
  IC50: < 31.6 nM
[2]
  IC50: < 31.6 nM
[3]
  IC50: < 31.6 nM
[4]
  IC50: < 31.6 nM
[5]
  IC50: < 31.6 nM
[6]
  IC50: < 31.6 nM
[7]
  viability, T/C: 13.3%
[8]
  viability, T/C: 10.8%
[9]
  viability, T/C: 12%
[10]
  viability, T/C: 14.9%
[11]
  viability, T/C: 14.7%
[12]
  viability, T/C: 13.9%
[13]
  viability, T/C: 15.8%
[14]
  viability, T/C: 13.3%
[15]
  viability, T/C: 13.3%
[16]
  viability, T/C: 13.3%
[17]
  viability, T/C: 14.8%
[18]
  viability, T/C: 12.4%
[19]
  viability, T/C: 9.79%
[20]
  viability, T/C: 9.9%
[21]
  viability, T/C: 9.39%
[22]
  viability, T/C: 11.3%
[23]
  viability, T/C: 9.88%
[24]
  viability, T/C: 8.65%
[25]
  viability, T/C: 9.1%
[26]
  viability, T/C: 8.33%
[27]
  viability, T/C: 8.5%
[28]
  viability, T/C: 8.25%
[29]
  viability, T/C: 5.96%
[30]
  viability, T/C: 6.34%
[31]
  viability, T/C: 8.6%
[32]
  viability, T/C: 7.49%
[33]
  viability, T/C: 7.26%
[34]
  viability, T/C: 8.76%
[35]
  viability, T/C: 6.3%
[36]
  viability, T/C: 6.38%
[37]
  viability, T/C: 9.98%
[38]
  viability, T/C: 9.04%
[39]
  viability, T/C: 6.83%
[40]
  viability, T/C: 7.74%
[41]
  viability, T/C: 6.77%
[42]
  viability, T/C: 5.84%

## COC1C=CCC(C)C(C)S(=O)(=O)NC(=O)c2ccc3c(c2)N(CC2CCC21)CC1(CCCc2cc(Cl)ccc21)CO3 (stereo not given) + CN1CCN(c2cc(C(=O)Nc3cc4cc(-c5cnn(C)c5)ccc4cn3)ccn2)CC1
[1]
  IC50: 4120 nM
[2]
  IC50: 1120 nM
[3]
  IC50: < 31.6 nM
[4]
  IC50: < 31.6 nM
[5]
  IC50: < 31.6 nM
[6]
  IC50: < 31.6 nM
[7]
  viability, T/C: 102%
[8]
  viability, T/C: 97.9%
[9]
  viability, T/C: 103%
[10]
  viability, T/C: 87.3%
[11]
  viability, T/C: 64.4%
[12]
  viability, T/C: 3.46%
[13]
  viability, T/C: 87.5%
[14]
  viability, T/C: 91.2%
[15]
  viability, T/C: 74%
[16]
  viability, T/C: 54.3%
[17]
  viability, T/C: 21.4%
[18]
  viability, T/C: 2.36%
[19]
  viability, T/C: 25.6%
[20]
  viability, T/C: 30.4%
[21]
  viability, T/C: 16.9%
[22]
  viability, T/C: 5.75%
[23]
  viability, T/C: 3.04%
[24]
  viability, T/C: 1.3%
[25]
  viability, T/C: 1.87%
[26]
  viability, T/C: 0.6%
[27]
  viability, T/C: 0.97%
[28]
  viability, T/C: 0.6%
[29]
  viability, T/C: 0.3%
[30]
  viability, T/C: 0.24%
[31]
  viability, T/C: 1.99%
[32]
  viability, T/C: 0.97%
[33]
  viability, T/C: 1.2%
[34]
  viability, T/C: 0.98%
[35]
  viability, T/C: 1.26%
[36]
  viability, T/C: 0.58%
[37]
  viability, T/C: 0.93%
[38]
  viability, T/C: 1.11%
[39]
  viability, T/C: 1.01%
[40]
  viability, T/C: 0.62%
[41]
  viability, T/C: 1.39%
[42]
  viability, T/C: 0.26%

## CC(CO)NC(=O)c1cc(-c2ccc(Cl)cc2)nn(-c2cnn(C)c2)c1=O (stereo not given)
Compound 0.0316 µM
  viability, T/C: 84.6% and 120%
Compound 0.1 µM
  viability, T/C: 80.5% and 91.3%
Compound 0.316 µM
  viability, T/C: 95.9% and 96.8%
Compound 1 µM
  viability, T/C: 81% and 88.2%
Compound 3.16 µM
  viability, T/C: 87.7% and 101%
Compound 10 µM
  viability, T/C: 115% and 117%
Curve of compound
  IC50: > 10000 nM

## O=C(c1cc(Cc2n[nH]c(=O)c3ccccc23)ccc1F)N1CCN(C(=O)C2CC2)CC1 + CN1CCN(c2cc(C(=O)Nc3cc4cc(-c5cnn(C)c5)ccc4cn3)ccn2)CC1
[1]
  IC50: > 10000 nM
[2]
  IC50: > 10000 nM
[3]
  IC50: < 31.6 nM
[4]
  IC50: < 31.6 nM
[5]
  IC50: < 31.6 nM
[6]
  IC50: < 31.6 nM
[7]
  viability, T/C: 95.8%
[8]
  viability, T/C: 97.4%
[9]
  viability, T/C: 97.2%
[10]
  viability, T/C: 103%
[11]
  viability, T/C: 102%
[12]
  viability, T/C: 93.6%
[13]
  viability, T/C: 82.5%
[14]
  viability, T/C: 82.8%
[15]
  viability, T/C: 82.7%
[16]
  viability, T/C: 73.9%
[17]
  viability, T/C: 73.2%
[18]
  viability, T/C: 69%
[19]
  viability, T/C: 24.6%
[20]
  viability, T/C: 25.8%
[21]
  viability, T/C: 23.1%
[22]
  viability, T/C: 24.8%
[23]
  viability, T/C: 24.2%
[24]
  viability, T/C: 21.7%
[25]
  viability, T/C: 0.33%
[26]
  viability, T/C: 0.74%
[27]
  viability, T/C: 2.04%
[28]
  viability, T/C: 0.29%
[29]
  viability, T/C: 1.71%
[30]
  viability, T/C: 0.32%
[31]
  viability, T/C: 2.76%
[32]
  viability, T/C: 1.64%
[33]
  viability, T/C: 1.3%
[34]
  viability, T/C: 1.29%
[35]
  viability, T/C: 1.16%
[36]
  viability, T/C: 1.05%
[37]
  viability, T/C: 1.59%
[38]
  viability, T/C: 0.89%
[39]
  viability, T/C: 0.83%
[40]
  viability, T/C: 0.77%
[41]
  viability, T/C: 1.1%
[42]
  viability, T/C: 0.59%

## COc1cccc2c1C(=O)c1c(O)c3c(c(O)c1C2=O)CC(O)(C(=O)CO)CC3OC1CC(N)C(O)C(C)O1 (stereo not given) + CNC(=O)c1ccc(Nc2nc(OC3CCCC3)c3c(-c4ccc5nc(C)oc5c4)c[nH]c3n2)c(OC)c1
[1]
  IC50: 161 nM
[2]
  IC50: 138 nM
[3]
  IC50: 66 nM
[4]
  IC50: < 31.6 nM
[5]
  IC50: < 31.6 nM
[6]
  IC50: < 31.6 nM
[7]
  viability, T/C: 112%
[8]
  viability, T/C: 73.5%
[9]
  viability, T/C: 17.3%
[10]
  viability, T/C: 0.3%
[11]
  viability, T/C: 3.88%
[12]
  viability, T/C: 1.97%
[13]
  viability, T/C: 72.2%
[14]
  viability, T/C: 64.4%
[15]
  viability, T/C: 13%
[16]
  viability, T/C: 0.2%
[17]
  viability, T/C: 1.92%
[18]
  viability, T/C: 4.82%
[19]
  viability, T/C: 52.4%
[20]
  viability, T/C: 48.7%
[21]
  viability, T/C: 10.6%
[22]
  viability, T/C: 1.25%
[23]
  viability, T/C: 2.88%
[24]
  viability, T/C: 1.07%
[25]
  viability, T/C: 40.7%
[26]
  viability, T/C: 27.5%
[27]
  viability, T/C: 3.75%
[28]
  viability, T/C: 2.42%
[29]
  viability, T/C: 6.62%
[30]
  viability, T/C: 3.37%
[31]
  viability, T/C: 34.2%
[32]
  viability, T/C: 19.9%
[33]
  viability, T/C: 3.14%
[34]
  viability, T/C: 2.25%
[35]
  viability, T/C: 1.39%
[36]
  viability, T/C: 1.97%
[37]
  viability, T/C: 34.8%
[38]
  viability, T/C: 16.9%
[39]
  viability, T/C: 4.4%
[40]
  viability, T/C: 2.28%
[41]
  viability, T/C: 3.08%
[42]
  viability, T/C: 3.22%
